Measurements taken from paper PMC9925730, “Controlled sequential in situ self-assembly and disassembly of a fluorogenic cisplatin prodrug for cancer theranostics” (Nature Communications, 2023).
Where “and” joins values, the source holds several entries; their conditions need not be identical. Equal values may be shown once.

Key:
[1] = Blood analysis in healthy mice (blood count, biochemistry); assay type: in vivo; design: BUN / CRE / WBC / HGB / HCT / MCH / MCHC / MCV / RBC / ALT / AST / TP / T-Bil / Alb: unit not given here; conditions: for ALT / AST / Alb / BUN / CRE / HCT / MCH / MCHC / MCV / PLT / RBC / T-Bil / TP / WBC: Supplementary Fig. 36
[2] = test system: HeLa cells; test: Depletion of intracellular GSH; assay type: cell-based, human; design: key to Intracellular GSH level after treatment (Supplementary Table S2): GSH content in fmol/cell; conditions: for [GSH] after treatment / [GSH] depletion: HeLa cells, Pt drug 2 h, then fresh medium 24 h; for Intracellular GSH level after treatment (Supplementary Table S2): blank (before treatment) mean 12.88; for GSH-depletion: relative to blank (before treatment)
Experimental: Supplementary Tables 1-13 Supplementary Table 1. ICP-OES analysis of Pt in HeLa cells. a Pt drugs Pt element per cell Percentage of Pt element (fmol/cell) b taken up by cells (%) c P-CyPt 24.60 ± 3.5 36.9 ± 5.3 […] 1.73 ± 0.2 2.6 ± 0.3 CDDP 0.73 ± 0.09 1.1 ± 0.1 P-CyPt + Na3VO4 0.07 ± 0.01 0.1 ± 0.01 a HeLa cells were untreated or pre-treated with Na3VO4 (10 mM) for 20 min and then incubated with indicated Pt drug (10 μM) for 1 h. Then, the cells were trypsinized, collected, and the cell numbers were counted and digested with trace metal concentrated HNO3 (65~70%) and HCl (36~38%). The amount of Pt element was determined by ICP-OES. b Pt per cell represents the average amount of Pt element in one HeLa cell, which was calculated by dividing the total amount of Pt element in cells by the cell number. c Percentage of Pt taken up by cells was calculated by dividing the total amount of Pt elements in cells by the amount of Pt drugs added. Values denote mean ± s.d. (n = 3 independent experiments). Supplementary Table 2. Comparison of the intracellular GSH in HeLa cells before and after incubation with different Pt drugs. a Pt [GSH] before treatment [GSH] drugs (fmol/cell) [GSH] after treatment (fmol/cell) depletion b CDDP 11.81 ± 1.7 8.3% […] 11.71 ± 1.6 9.1% 12.88 ± 1.5 P-CyPt 8.07 ± 0.8 37.3% a HeLA cells were untreated or treated with different Pt drugs for 2 h. The cells were washed with PBS for three times, and replaced with fresh medium and incubated for another 24 h. After that, the cells were trypsinized, centrifuged and counted. The cell pellets were dispersed, lysed via sonication, and ultracentrifuged to obtain supernatant. The GSH content (nPt) in the supernatant was measured by a reported detection method. The content of GSH per cell ([GSH]) before and after treatment (nB and nA) was calculated according to the formula: […] GSH depletion: The GSH depletion (Δ) was calculated according to the formula: %Δ = (nB - nA)/ nB. Values denote mean ± s.d. (n = 3 independent experiments). 27 page 45: DNA […]-stained with 5x loading buffer in the TAE buffer and the resultant gel visualized by Gel DocTM XR+ (Bio-Rad) system. Depletion of intracellular GSH. HeLa cells (2×10^5 cells/well) in 2 mL DMEM medium were seeded onto 6-well plates and allowed to grow overnight. Then cells were then treated with […], or CDDP (10 μM), respectively. After that, cells were digested with trypsin and washed with PBS for 3 times. Then, cell pellets were dispersed in pre-chilled extraction solution (1 mL, 0.1 M potassium phosphate buffer containing 0.1% Triton, 0.6% sulfosalicylic acid, and 5 mM EDTA, pH 7.4) and sonicated with an US probe on ice for 2 min. To ensure that cells were lysed completely, the solution was further frozen and thawed twice. Finally, the solution was centrifuged at 3000 g at 4 °C for 4 min. The supernatant was taken to measure the GSH content using commercial GSH detection kit, according to a reported procedure (Nat. Protoc. 2006, 1, 3159). MCTS imaging and cytotoxicity. The three-dimensional multicellular spheroids (MCTS) of HeLa were cultured according to the method previously described (Nat. Protoc. 2009, 4, 309) with minor modifications. Briefly, a well of 96-well plates was covered by 50 μL of hot agarose solution (1.5 w/v %) and then cooled to form a layer of agaropectin. HeLa cells were seeded to the agaropectin-coated well at a density of 2×10^3 cells/well, and incubated to grow into spheroids. DMEM medium was replaced with fresh medium every 2 days until the diameter of tumor spheroids grows near 400 μm. Then, the MCSs were incubated with 10 μM P-CyPt or […] for 1 h, washed with PBS for 3 times. Blank DMEM medium was added, and incubated for another 24 h. After that, PI (4 μM) was added and incubated for 1 h. The medium was removed, and the spheroids were gently washed with PBS (×1), which was then carefully transferred to a glass bottom dish. […]

[3] = Supplementary Fig. 36, first HGB block, individual mice
[4] = Supplementary Fig. 36, first HGB block, mean of 3 mice

| SMILES | HGB [1, 3] | HGB [1, 4] | ALT ([1]; individual mice) | AST ([1]; individual mice) | Alb ([1]; individual mice) | BUN ([1]; individual mice) | CRE ([1]; individual mice) | HCT ([1]; individual mice) | MCH ([1]; individual mice) | MCHC ([1]; individual mice) | MCV ([1]; individual mice) | PLT ([1]; individual mice) | RBC ([1]; individual mice) | T-Bil ([1]; individual mice) | TP ([1]; individual mice) | WBC ([1]; individual mice) | ALT ([1]; mean of 3 mice) | AST ([1]; mean of 3 mice) | Alb ([1]; mean of 3 mice) | BUN ([1]; mean of 3 mice) | also measured |
| --- | --- | --- | --- | --- | --- | --- | --- | --- | --- | --- | --- | --- | --- | --- | --- | --- | --- | --- | --- | --- | --- |
| CC1(C)C(/C=C/C2=C3Oc4cc(OP(=O)(O)O)c(Cl)cc4C=C3CCC2)=[N+](CCCNC(=O)[C@@H](Cc2ccccc2)NC(=O)[C@@H](Cc2ccccc2)NC(=O)CCC(=O)[O][Pt]([NH2])([NH2])([OH])([Cl])[Cl])c2ccccc21 [P-CyPt] | 124 and 128 and 97 | 116.333 | 64.638 and 69.471 and 57.14 | 93.668 and 95.637 and 124.668 | 28.06 and 34.76 and 32.73 | 22.456 and 18.592 and 16.632 | 23.568 and 18.005 and 14.662 | 42 and 36 and 35.3 | 18.3 and 18.9 and 16.6 | 315 and 345 and 304 | 50.3 and 49.6 and 53.5 | 463 and 494 and 673 | 7.22 and 7.49 and 6.74 | 20.416 and 17.788 and 25.91 | 41.72 and 48.65 and 44.25 | 2.3 and 2.6 and 1.5 | 63.750 | 104.658 | 31.850 | 19.227 | HGB ([1]; Supplementary Fig. 36, second HGB block (between AST and TP), mean of 3 mice): 3.426; CRE ([1]; mean of 3 mice): 18.745; HCT ([1]; mean of 3 mice): 37.767; MCH ([1]; mean of 3 mice): 17.933; MCHC ([1]; mean of 3 mice): 321.333; MCV ([1]; mean of 3 mice): 51.133; PLT ([1]; mean of 3 mice): 543.333; RBC ([1]; mean of 3 mice): 7.150; T-Bil ([1]; mean of 3 mice): 21.371; TP ([1]; mean of 3 mice): 44.873; WBC ([1]; mean of 3 mice): 2.133; blood count and biochemistry values ([1]; healthy nude mice, 1 day post i.v. 2.25 mg kg-1 Pt): all the values were within the normal reference; [GSH] after treatment [2]: 8.07 ± 0.8 fmol/cell; [GSH] depletion [2]: 37.3% and ~ 37.3%; Intracellular GSH level after treatment (Supplementary Table S2) ([2]; individual samples): 7.3478 and 7.9326 and 8.9304; Intracellular GSH level after treatment (Supplementary Table S2) ([2]; mean of 3 samples): 8.07; GSH-depletion [2]: 37.30% |
| [NH2][Pt]([NH2])([Cl])[Cl] [CDDP, cisplatin] | 90 (2×) and 67 | 82.333 | 45.502 and 43.964 and 66.025 | 126.05 and 97.802 and 100.507 | 26.65 and 25.18 and 35.22 | 18.956 and 37.908 and 23.94 | 19.831 and 68.509 and 25.561 | 35.4 and 40.2 and 41.2 | 16.6 and 15.9 and 18.6 | 350 and 331 and 324 | 51.5 and 49.5 and 51.3 | 591 and 289 and 329 | 7.14 and 6.54 and 6.58 | 21.47 and 18.852 and 18.358 | 42.81 and 40.21 and 50.47 | 1.9 and 1.2 and 1.6 | 51.830 | 108.120 | 29.017 | 26.935 | CRE ([1]; mean of 3 mice): 37.967; HCT ([1]; mean of 3 mice): 38.933; MCH ([1]; mean of 3 mice): 17.033; MCHC ([1]; mean of 3 mice): 335.000; MCV ([1]; mean of 3 mice): 50.767; PLT ([1]; mean of 3 mice): 403.000; RBC ([1]; mean of 3 mice): 6.753; T-Bil ([1]; mean of 3 mice): 19.560; TP ([1]; mean of 3 mice): 44.497; WBC ([1]; mean of 3 mice): 1.567; [GSH] after treatment [2]: 11.81 ± 1.7 fmol/cell; [GSH] depletion [2]: 8.3% and ~ 8.3%; Intracellular GSH level after treatment (Supplementary Table S2) ([2]; individual samples): 10.2784 and 11.5154 and 13.6407; Intracellular GSH level after treatment (Supplementary Table S2) ([2]; mean of 3 samples): 11.81; GSH-depletion [2]: 8.30% |
